≈ marks a conversion by molar mass, not a printed value.

One test relates to K562 cell line. The test can be described thus: MTT test of structural analogues of harringtonines on K562 cell line. Type of test: cell-based. The conditions noted are these: Homo sapiens, K562, 72 h. On the procedure:
Structural analogues of harringtonines described in this invention were tested on K562 cell line, derived from chronic myeloid leukemia cells in blastic transformation (bcr-abl positive). The cell line was purchased from ATCC (American Tissue Culture Collection) and grown in RPMI medium supplemented with 10% heat-inactivated fetal calf serum, 2 mmol/L glutamine, […] penicillin and […] streptomycin. All tested products were initially dissolved in […] (pH=2), supplemented with ultrasound treatment during 1 h. Working concentrations were made by dilution in culture medium (pH around 7). Cells in exponential growth phase were placed into 96-microwell plates in concentration 3×10^4/mL (total volume 200 μL/well) and incubated with drugs for 72 h at 37° C. in 5% CO2 humidified atmosphere. Following incubation, 2 μL of MTT solution (Sigma, St. Louis, Mo.) was added to each well. During the following 6 h of incubation at 37° C., the purple formazan product was formed by conversion of the yellow MTT salt in the mitochondria of the viable cells. The resulting precipitate was dissolved in DMSO and the amount of converted MTT was quantified in an ELISA reader (MR 5000, Dynatech). Each product was tested in triplicate (3×8 wells). Every test contained at least one plate with HHT as control, added in the same concentration as the tested products.
For `CCSC(=O)C[C@](O)(CCCC(C)(C)O)C(=O)OC1C(OC)=C[C@@]23CCCN2CCc2cc4c(cc2[C@H]13)OCO4` (stereo partly drawn) [Example 32, (2′R)-4′-ethylthio-4′-demethoxy-homoharringtonine], the IC50 (commonly the midpoint of a concentration-inhibition curve) was found to be 0.08 µg/mL (≈ 0.139 µM).
On the same count and under the same terms, next, `COC(=O)C[C@](O)(CCC(C)(C)F)C(=O)OC1C(OC)=C[C@@]23CCCN2CCc2cc4c(cc2[C@H]13)OCO4` (stereo partly drawn) [Example 59, (2′R)-3″-Fluoro-3″-deoxy-harringtonine]: 0.0135 µg/mL (≈ 0.0253 µM); `COC1=C[C@]23CCCN2CCc2cc4c(cc2[C@@H]3[C@@H]1O)OCO4` [CEPHALOTAXINE (CTX), cephalotaxine, reference compound]: 2 µg/mL (≈ 6.34 µM); `CC=CCOC(=O)C[C@](O)(CCC(C)(C)O)C(=O)OC1C(OC)=C[C@@]23CCCN2CCc2cc4c(cc2[C@H]13)OCO4` (stereo partly drawn) [Example 55, (2′R)-4′-(but-2-enyl)-4′-demethyl-harringtonine]: 0.014 µg/mL (≈ 0.0245 µM).
Compound `COC1=C[C@@]23CCCN2CCc2cc4c(cc2[C@@H]3C1OC(=O)[C@@](O)(CCCC(C)(C)O)CC(=O)OCC(C)C)OCO4` (stereo partly drawn) [Example 52, (2′R)-4′-isobutyl-4′-demethyl-homoharringtonine] returned a 50% inhibitory concentration (IC50) of 0.024 µg/mL (≈ 0.0408 µM).
The same measure, in the same setting: next, `COC1=C[C@@]23CCCN2CCc2cc4c(cc2[C@@H]3C1OC(=O)[C@@](O)(CCCC(C)(C)O)CC(=O)SC)OCO4` (stereo partly drawn) [Example 30, (2′R)-4′-methylthio-4′-demethoxy-homoharringtonine]: 0.05 µg/mL (≈ 0.089 µM); `COC1=C[C@@]23CCCN2CCc2cc4c(cc2[C@@H]3C1OC(=O)[C@@](O)(CCCC(C)(C)O)CC(=O)OCC=C(C)C)OCO4` (stereo partly drawn) [Example 39, (2′R)-4′-(3-methyl-2-butenyl)-4′-demethyl-homoharringtonine]: 0.028 µg/mL (≈ 0.0467 µM).
On the same count and under the same terms, next, `COC1=C[C@@]23CCCN2CCc2cc4c(cc2[C@@H]3C1OC(=O)[C@@](O)(CCCC(C)(C)O)CC(=O)OCc1ccc(C)cc1)OCO4` (stereo partly drawn) [Example 72, (2′R)-4′-p-methylbenzyl-4′-demethyl-homoharringtonine]: 0.006 µg/mL (≈ 0.00944 µM); `COC1=C[C@@]23CCCN2CCc2cc4c(cc2[C@@H]3C1OC(=O)[C@@](O)(CCCC(C)(C)O)CC(=O)Oc1ccccc1)OCO4` (stereo partly drawn) [Example 79, (2′R)-4′-phenoxy-4′-demethylhomoharringtonine]: 0.01 µg/mL (≈ 0.0165 µM); `COC1=C[C@@]23CCCN2CCc2cc4c(cc2[C@@H]3C1OC(=O)[C@@](O)(CCCC(C)(C)O)CC(=O)SC(C)C)OCO4` (stereo partly drawn) [Example 34, (2′R)-4′-isopropylthio-4′-demethoxy-homoharringtonine]: 0.05 µg/mL (≈ 0.0848 µM).
The same measure, in the same setting: next, `CCOC(=O)C[C@](O)(CCCC(C)(C)O)C(=O)OC1C(OC)=C[C@@]23CCCN2CCc2cc4c(cc2[C@H]13)OCO4` (stereo partly drawn) [Example 25, (2′R)-4′-ethyl-4′-demethyl-homoharringtonine]: 0.041 µg/mL (≈ 0.0733 µM); `COCCOC(=O)C[C@](O)(CCCC(C)(C)O)C(=O)OC1C(OC)=C[C@@]23CCCN2CCc2cc4c(cc2[C@H]13)OCO4` (stereo partly drawn) [Example 78, (2′R)-4′-(2-methoxyethoxy)-4′-demethyl-homoharringtonine]: 0.012 µg/mL (≈ 0.0203 µM).
The compound `COC1=C[C@@]23CCCN2CCc2cc4c(cc2[C@@H]3C1OC(=O)[C@@](O)(CCCC(C)(C)O)CC(=O)OCCCCCO)OCO4` (stereo partly drawn) [Example 74, (2′R)-4′-(5-hydroxypentyl)-4′-demethyl-homo harringtonine] showed an IC50 of 0.024 µg/mL (≈ 0.0389 µM).
Still for that read-out and setting: as for `CCCOC(=O)C[C@](O)(CCCC(C)(C)O)C(=O)OC1C(OC)=C[C@@]23CCCN2CCc2cc4c(cc2[C@H]13)OCO4` (stereo partly drawn) [Example 51, (2′R)-4′-propyl-4′-demethyl-homoharringtonine], the figure is 0.0225 µg/mL (≈ 0.0392 µM); as for `COC1=C[C@@]23CCCN2CCc2cc4c(cc2[C@@H]3C1OC(=O)[C@@](O)(CCCC(C)(C)O)CC(=O)OCc1cccc2ccccc12)OCO4` (stereo partly drawn) [Example 81, (2′R)-4′-(1-naphtalenemethoxy)-4′-demethyl-homoharringtonine], 0.008 µg/mL (≈ 0.0119 µM).
Same read-out and setting: as for `COC1=C[C@@]23CCCN2CCc2cc4c(cc2[C@@H]3C1OC(=O)[C@@](O)(CCCC(C)(C)O)CC(=O)SC(C)(C)C)OCO4` (stereo partly drawn) [Example 36, (2′R)-4′-tert-butylthio-4′-demethoxy-homoharringtonine], the figure is 0.02 µg/mL (≈ 0.0331 µM).
Still for that read-out and setting: as for `CC=CCOC(=O)C[C@](O)(CCCC(C)(C)O)C(=O)OC1[C@H]2c3cc4c(cc3[C@@H]3CN5CCC[C@@]25C[C@@]1(OC)O3)OCO4` (stereo partly drawn) [Example 56, 4-(2-butenyl) (2R)-2-hydroxy-2-(4-hydroxy-4-methylpentyl)succinate of (−)-drupacine], the figure is 0.0135 µg/mL (≈ 0.0224 µM); as for `CCCCCCOC(=O)C[C@](O)(CCC(C)C)C(=O)OC1C(OC)=C[C@@]23CCCN2CCc2cc4c(cc2[C@H]13)OCO4` (some centres unmarked) [Example 84, (2′ R)-4′-hexanyloxy-4′-demethyldeoxyharringtonine], 0.007 µg/mL (≈ 0.012 µM); as for `COC1=C[C@@]23CCCN2CCc2cc4c(cc2[C@@H]3C1OC(=O)[C@@](O)(CCCC(C)(C)O)CC(=O)OCc1ccc([N+](=O)[O-])cc1)OCO4` (stereo partly drawn) [Example 85, (2′R)-4′-p-nitrobenzyloxy-4′-demethyl-homoharringtonine], 0.018 µg/mL (≈ 0.027 µM).
Compound `COC1=C[C@@]23CCCN2CCc2cc4c(cc2[C@@H]3C1OC(=O)[C@@](O)(CCCC(C)(C)O)CC(=O)OCC(F)(F)F)OCO4` (stereo partly drawn) [Example 48, (2′R)-4′-(2,2,2-trifluoroethyl)-4′-demethyl-homoharringtonine] gave an IC50 of 0.1 µg/mL (≈ 0.163 µM).
The same measure, in the same setting: next, `CCCCCCCCOC(=O)C[C@](O)(CCCC(C)(C)O)C(=O)OC1C(OC)=C[C@@]23CCCN2CCc2cc4c(cc2[C@H]13)OCO4` (stereo partly drawn) [Example 67, (2′R)-4′-octyl-4′-demethyl-homoharringtonine]: 0.009 µg/mL (≈ 0.014 µM).
On the same count and under the same terms, as for `COC1=C[C@@]23CCCN2CCc2cc4c(cc2[C@@H]3C1OC(=O)[C@@](O)(CCCC(C)(C)O)CC(=O)OCc1ccc(OC)cc1)OCO4` (stereo partly drawn) [Example 86, (2′R)-4′-p-methoxybenzyloxy-4′-demethyl-homoharringtonine], the figure is 0.02 µg/mL (≈ 0.0307 µM); as for `COC(=O)C[C@](O)(CCC(C)(C)O)C(=O)O[C@@H]1C(OC)=C[C@]23CCCN2CCc2cc4c(cc2[C@H]13)OCO4` [HARRINGTONINE (HHT), harringtonine, reference compound], 0.03 µg/mL (≈ 0.0564 µM); as for `CCC(C)COC(=O)C[C@](O)(CCCC(C)(C)O)C(=O)OC1C(OC)=C[C@@]23CCCN2CCc2cc4c(cc2[C@H]13)OCO4` (stereo partly drawn) [Example 69, (2′R)-4′-(methyl-2-butyl)-4′-demethyl-homoharringtonine], 0.029 µg/mL (≈ 0.0482 µM).
Turning to `COC1=C[C@]23CCCN2CCc2cc4c(cc2[C@@H]3C1OC(=O)[C@@](O)(CCCC(C)(C)O)CC(=O)OC(C)C)OCO4` (stereo partly drawn) [Example 27, (2′R)-4′-isopropyl-4′-demethyl-homoharringtonine], the IC50 was 0.08 µg/mL (≈ 0.139 µM).
Same read-out and setting: next, `CC#CCOC(=O)C[C@](O)(CCCC(C)(C)O)C(=O)OC1C(OC)=C[C@@]23CCCN2CCc2cc4c(cc2[C@H]13)OCO4` (stereo partly drawn) [Example 42, (2′R)-4′-(2-butynyl)-4′-demethyl-homoharringtonine]: 0.0105 µg/mL (≈ 0.018 µM); `COC1=C[C@@]23CCCN2CCc2cc4c(cc2[C@@H]3C1OC(=O)[C@@](O)(CCCC(C)(C)O)CC(=O)OCC1CC1)OCO4` (stereo partly drawn) [Example 49, (2′R)-4′-cyclopropylmethyl-4′-demethyl-homoharringtonine]: 0.07 µg/mL (≈ 0.12 µM); `COC1=C[C@@]23CCCN2CCc2cc4c(cc2[C@@H]3C1OC(=O)[C@@](O)(CCCC(C)(C)O)CC(=O)OCc1cccs1)OCO4` (stereo partly drawn) [Example 82, (2′R)-4′-(2-thiophenemethoxy)-4′-demethyl-homoharringtonine]: 0.005 µg/mL (≈ 0.00796 µM).
Take `CCCCCCCOC(=O)C[C@](O)(CCCC(C)(C)O)C(=O)OC1C(OC)=C[C@@]23CCCN2CCc2cc4c(cc2[C@H]13)OCO4` (stereo partly drawn) [Example 66, (2′R)-4′-heptyl-4′-demethyl-homoharringtonine]: 0.003 µg/mL (≈ 0.00476 µM) corresponded to half-maximal inhibition (IC50).
On the same count and under the same terms, next, `CCCCCCOC(=O)C[C@](O)(CCCC(C)(C)O)C(=O)OC1C(OC)=C[C@@]23CCCN2CCc2cc4c(cc2[C@H]13)OCO4` (stereo partly drawn) [Example 54, (2′R)-4′-hexyl-4′-demethyl-homoharringtonine]: 0.005 µg/mL (≈ 0.00812 µM).

Staying with this test, now noted: Homo sapiens; K562 cell line, 72 h incubation, MTT; read-out: IC50.
Regarding `COC(=O)C[C@](O)(CCCC(C)(C)O)C(=O)O[C@@H]1C(OC)=C[C@]23CCCN2CCc2cc4c(cc2[C@H]13)OCO4` [HOMOHARRINGTONINE, homoharringtonine, reference compound], the half-maximal inhibitory concentration (IC50) came to 0.014 µg/mL (≈ 0.0257 µM).
On the same count and under the same terms, as for `[2H]C([2H])OC(=O)C[C@](O)(CCCC(C)(C)O)C(=O)OC1C(OC)=C[C@@]23CCCN2CCc2cc4c(cc2[C@H]13)OCO4` (stereo partly drawn) [Example 87, (2′R)-(4′-^2H2)homoharringtonine], the figure is 0.021 µg/mL (≈ 0.0383 µM).

Staying with this test, now noted: K562 cell line, 72 h incubation, MTT.
For the compound `C=C(C)COC(=O)C[C@](O)(CCCC(C)(C)O)C(=O)O[C@@H]1C(OC)=C[C@]23CCCN2CCc2cc4c(cc2[C@H]13)OCO4` [Example 41, (2′R)-4′-(2-methyl-2-propenyl)-4′-demethyl-homoharringtonine], it took 0.0085 µg/mL (≈ 0.0145 µM) to reach half-maximal inhibition (IC50).
On to `CC=CCCCOC(=O)C[C@](O)(CCCC(C)(C)O)C(=O)O[C@@H]1C(OC)=C[C@]23CCCN2CCc2cc4c(cc2[C@H]13)OCO4` [Example 53, (2′R)-4′-(hex-4-enyl)-4′-demethyl-homoharringtonine], for which the IC50 is 0.0085 µg/mL (≈ 0.0138 µM).
Still for that read-out and setting: as for “4-(hexa-2,4-dienyl) (2R)-2-hydroxy-2-(4-hydroxy-4-methylpentyl)succinate of (−)-drupacine [Example 57]”, the figure is 0.009 µg/mL.

These data come from patent US7285546B2, “Cephalotaxanes, their method of preparation and their use in treatment of cancers, leukemias, parasites including those resistant to usual chemotherapeutic agents and as reversal agents” (Stragen Pharma S.A., priority 2000, dated 2007).
